11 compounds from patent US20150011466A1, “APJ Receptor Compounds” (priority 2012, published 2015) can be followed below.

Broadly, the EC50 is the concentration that produces a half-maximal response.

Read-outs that look alike come from different tables or passages of the source. Where a SMILES comes first, the peptide text is derived from it. [ ]: non-standard residue; d: D form. The star is where a group is joined. Palmitoyl = CCCCCCCCCCCCCCCC(=O)*

One data set deals with T1, APJ receptor (Homo sapiens, UniProt P35414).
T1 construct: expressed in transfected cells; host or cells: Human TRex cells (doxycycline-inducible)
T1 sequence (P35414 1-380): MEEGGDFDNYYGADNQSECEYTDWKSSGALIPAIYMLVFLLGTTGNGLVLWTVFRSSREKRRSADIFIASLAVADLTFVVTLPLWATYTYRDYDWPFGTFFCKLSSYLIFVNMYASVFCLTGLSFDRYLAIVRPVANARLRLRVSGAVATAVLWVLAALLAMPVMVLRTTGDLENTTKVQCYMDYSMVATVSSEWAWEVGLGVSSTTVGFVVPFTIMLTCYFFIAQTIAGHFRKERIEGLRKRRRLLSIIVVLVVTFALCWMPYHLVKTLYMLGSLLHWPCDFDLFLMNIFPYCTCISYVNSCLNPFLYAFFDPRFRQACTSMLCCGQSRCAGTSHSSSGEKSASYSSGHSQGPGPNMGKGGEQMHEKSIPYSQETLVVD
The data set is described as follows: HTRF cAMP assay, inhibition of NKH477 stimulated cAMP in Human TRex cells expressing APJ upon doxycycline induction (APJ-hTREX). The format is cell-based. Conditions: for Ranking: class combining EC50 and % histamine; for percent intrinsic activity at 0.3 µM: read-out: % IA (@ 300 nM). The method, boiled down:
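Cells stimulated with NKH477 and cAMP measured by HTRF competitive immunoassay (cryptate anti-cAMP antibody, d2-labeled cAMP). APJ-hTREX cells induced with […] doxycycline and seeded overnight at 40 k/well.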
On the technique in general: In TR-FRET formats the signal depends on donor and acceptor labels being close together.

The mark [1] stands for this setting: inhibition of NKH477 stimulated cAMP, APJ-hTREX cells, read-out: APJ-hTREX EC50.

Take `CCCCCCCCCCCCCCCC(=O)N[C@H](C(=O)N[C@H](C(=O)N[C@@H](Cc1ccccc1)C(=O)N[C@@H](CCCNC(=N)N)C(=O)N[C@@H](CO)C(=O)N[C@@H](CO)C(=O)N[C@@H](CCC(=O)O)C(=O)N[C@H](CCCCN)C(=O)N[C@@H](CCCNC(=N)N)C(=O)N[C@@H](CCCNC(=N)N)C(=O)N[C@@H](CO)C(=O)N[C@@H](C)C(=O)N[C@@H](CC(=O)O)C(=O)N[C@@H](CCC(N)=O)C(=O)N[C@@H](Cc1ccccc1)C(=O)N[C@H](C(N)=O)[C@@H](C)CC)C(C)C)[C@@H](C)O` [Compound 30] (Palmitoyl-TVFRSSE[dK]RRSADQFI-NH2; C-terminus assumed): at APJ receptor, the Ranking result is “*** (EC50<100 nM and % histamine>35%)”; the percent intrinsic activity at 0.3 µM came to 98%. For the same compound, the EC50 on APJ receptor (setting [1]) was determined as 84.6 nM. In the data set “Histimine (% vs. 48/40)”, the “Histimine (% vs. 48/40)” value is on record as 63%.
`CCCCCCCCCCCCCCCC(=O)N[C@H](C(=O)N[C@H](C(=O)N[C@@H](Cc1ccccc1)C(=O)N[C@@H](CCCNC(=N)N)C(=O)N[C@@H](CO)C(=O)N[C@@H](CO)C(=O)N[C@@H](CCC(=O)O)C(=O)N[C@H](CCCCN)C(=O)N[C@@H](CCCNC(=N)N)C(=O)N[C@@H](CCCNC(=N)N)C(=O)N[C@@H](CO)C(=O)N[C@@H](C)C(=O)N[C@@H](CC(=O)O)C(=O)N[C@H](C(=O)N[C@@H](CCC(N)=O)C(=O)N[C@H](C(N)=O)[C@@H](C)CC)[C@@H](C)CC)C(C)C)[C@@H](C)O` [Compound 31] (Palmitoyl-TVFRSSE[dK]RRSADIQI-NH2): the percent intrinsic activity at 0.3 µM at APJ receptor was 67%. In addition, the “Histimine (% vs. 48/40)” value in “Histimine (% vs. 48/40)” stood at 68%.
For the compound `CCCCCCCCCCCCCCCC(=O)N[C@H](C(=O)N[C@H](C(=O)N[C@@H](Cc1ccccc1)C(=O)N[C@@H](CCCNC(=N)N)C(=O)N[C@@H](CO)C(=O)N[C@@H](CO)C(=O)N[C@@H](CCC(=O)O)C(=O)N[C@H](CCCCN)C(=O)N[C@@H](CCCNC(=N)N)C(=O)N[C@@H](CCCNC(=N)N)C(=O)N[C@@H](CO)C(=O)N[C@@H](C)C(=O)N[C@@H](CC(=O)O)C(=O)N[C@H](C(=O)N[C@@H](Cc1ccccc1)C(=O)N[C@@H](CCC(N)=O)C(N)=O)[C@@H](C)CC)C(C)C)[C@@H](C)O` [Compound 32] (Palmitoyl-TVFRSSE[dK]RRSADIFQ-NH2), the percent intrinsic activity at 0.3 µM on APJ receptor was 55%. For the same compound, in “Histimine (% vs. 48/40)”, the “Histimine (% vs. 48/40)” value came out at 69%.
Consider `CCCCCCCCCCCCCCCC(=O)N[C@@H](CC(=O)O)C(=O)N[C@H](C(=O)N[C@@H](Cc1ccccc1)C(=O)N[C@@H](CCCNC(=N)N)C(=O)N[C@@H](CO)C(=O)N[C@@H](CO)C(=O)N[C@@H](CCC(=O)O)C(=O)N[C@H](CCCCN)C(=O)N[C@@H](CCCNC(=N)N)C(=O)N[C@@H](CCCNC(=N)N)C(=O)N[C@@H](CO)C(=O)N[C@@H](C)C(=O)N[C@@H](CC(=O)O)C(=O)N[C@H](C(=O)N[C@@H](Cc1ccccc1)C(=O)N[C@H](C(N)=O)[C@@H](C)CC)[C@@H](C)CC)C(C)C` [Compound 33] (Palmitoyl-DVFRSSE[dK]RRSADIFI-NH2; C-terminus assumed), for which, at APJ receptor, the EC50 is 107 nM; the Ranking entry is “**** (EC50 101-500 nM and % histamine<35%)”; the percent intrinsic activity at 0.3 µM was determined as 61%. The “Histimine (% vs. 48/40)” value in “Histimine (% vs. 48/40)” is reported as 11%.
Turning to `CCCCCCCCCCCCCCCC(=O)N[C@H](C(=O)N[C@H](C(=O)N[C@@H](CC(=O)O)C(=O)N[C@@H](CCCNC(=N)N)C(=O)N[C@@H](CO)C(=O)N[C@@H](CO)C(=O)N[C@@H](CCC(=O)O)C(=O)N[C@H](CCCCN)C(=O)N[C@@H](CCCNC(=N)N)C(=O)N[C@@H](CCCNC(=N)N)C(=O)N[C@@H](CO)C(=O)N[C@@H](C)C(=O)N[C@@H](CC(=O)O)C(=O)N[C@H](C(=O)N[C@@H](Cc1ccccc1)C(=O)N[C@H](C(N)=O)[C@@H](C)CC)[C@@H](C)CC)C(C)C)[C@@H](C)O` [Compound 35] (Palmitoyl-TVDRSSE[dK]RRSADIFI-NH2; C-terminus assumed), on APJ receptor, the midpoint of the response, the EC50, lay at 142 nM; the Ranking result is “**** (EC50 101-500 nM and % histamine<35%)”; the percent intrinsic activity at 0.3 µM was 70%. Also, the “Histimine (% vs. 48/40)” value in the data set “Histimine (% vs. 48/40)” is given as 4%.
`CCCCCCCCCCCCCCCC(=O)N[C@H](C(=O)N[C@H](C(=O)N[C@@H](Cc1ccccc1)C(=O)N[C@@H](CCCNC(=N)N)C(=O)N[C@@H](CO)C(=O)N[C@@H](CO)C(=O)N[C@@H](CCC(=O)O)C(=O)N[C@H](CCCCN)C(=O)N[C@@H](CCCNC(=N)N)C(=O)N[C@@H](CCCNC(=N)N)C(=O)N[C@@H](CC(=O)O)C(=O)N[C@@H](C)C(=O)N[C@@H](CC(=O)O)C(=O)N[C@H](C(=O)N[C@@H](Cc1ccccc1)C(=O)N[C@H](C(N)=O)[C@@H](C)CC)[C@@H](C)CC)C(C)C)[C@@H](C)O` [Compound 38] (Palmitoyl-TVFRSSE[dK]RRDADIFI-NH2; C-terminus assumed): on APJ receptor, the Ranking entry was “* (EC50>500 nM and % histamine>35%)”; the percent intrinsic activity at 0.3 µM stood at 46%. The EC50 on APJ receptor (setting [1]) amounted to 732 nM. Further, in “Histimine (% vs. 48/40)”, the “Histimine (% vs. 48/40)” value worked out at 13%.
In the case of `CCCCCCCCCCCCCCCC(=O)N[C@H](C(=O)N[C@H](C(=O)N[C@@H](Cc1ccccc1)C(=O)N[C@@H](CCCNC(=N)N)C(=O)N[C@@H](CO)C(=O)N[C@@H](CO)C(=O)N[C@@H](CCC(=O)O)C(=O)N[C@H](CCCCN)C(=O)N[C@@H](CCCNC(=N)N)C(=O)N[C@@H](CCCNC(=N)N)C(=O)N[C@@H](CO)C(=O)N[C@@H](CC(=O)O)C(=O)N[C@@H](CC(=O)O)C(=O)N[C@H](C(=O)N[C@@H](Cc1ccccc1)C(=O)N[C@H](C(N)=O)[C@@H](C)CC)[C@@H](C)CC)C(C)C)[C@@H](C)O` [Compound 39] (Palmitoyl-TVFRSSE[dK]RRSDDIFI-NH2), the percent intrinsic activity at 0.3 µM at APJ receptor is 27%. Also, the “Histimine (% vs. 48/40)” value in the data set “Histimine (% vs. 48/40)” was 8%.
With `CCCCCCCCCCCCCCCC(=O)N[C@H](C(=O)N[C@H](C(=O)N[C@@H](Cc1ccccc1)C(=O)N[C@@H](CCCNC(=N)N)C(=O)N[C@@H](CO)C(=O)N[C@@H](CO)C(=O)N[C@@H](CCC(=O)O)C(=O)N[C@H](CCCCN)C(=O)N[C@@H](CCCNC(=N)N)C(=O)N[C@@H](CCCNC(=N)N)C(=O)N[C@@H](CO)C(=O)N[C@@H](C)C(=O)N[C@@H](CC(=O)O)C(=O)N[C@@H](CC(=O)O)C(=O)N[C@@H](Cc1ccccc1)C(=O)N[C@H](C(N)=O)[C@@H](C)CC)C(C)C)[C@@H](C)O` [Compound 40] (Palmitoyl-TVFRSSE[dK]RRSADDFI-NH2; C-terminus assumed), on APJ receptor, the Ranking entry is “*** (EC50<100 nM and % histamine>35%)”; the percent intrinsic activity at 0.3 µM was 71%. In addition, the EC50 on APJ receptor (setting [1]) turned out to be 48.2 nM. Also, the “Histimine (% vs. 48/40)” value in “Histimine (% vs. 48/40)” is 46%.
For the compound `CCCCCCCCCCCCCCCC(=O)N[C@H](C(=O)N[C@H](C(=O)N[C@@H](Cc1ccccc1)C(=O)N[C@@H](CCCNC(=N)N)C(=O)N[C@@H](CO)C(=O)N[C@@H](CO)C(=O)N[C@@H](CCC(=O)O)C(=O)N[C@H](CCCCN)C(=O)N[C@@H](CCCNC(=N)N)C(=O)N[C@@H](CCCNC(=N)N)C(=O)N[C@@H](CO)C(=O)N[C@@H](C)C(=O)N[C@@H](CC(=O)O)C(=O)N[C@H](C(=O)N[C@@H](Cc1ccccc1)C(=O)N[C@@H](CC(=O)O)C(N)=O)[C@@H](C)CC)C(C)C)[C@@H](C)O` [Compound 41] (Palmitoyl-TVFRSSE[dK]RRSADIFD-NH2), at APJ receptor, the percent intrinsic activity at 0.3 µM came to 60%. Also, the “Histimine (% vs. 48/40)” value in the data set “Histimine (% vs. 48/40)” was 48%.
On to `CCCCCCCCCCCCCCCC(=O)N[C@H](C(=O)N[C@H](C(=O)N[C@@H](Cc1ccccc1)C(=O)N1CCC[C@H]1C(=O)N[C@@H](CO)C(=O)N[C@@H](CO)C(=O)N[C@@H](CCC(=O)O)C(=O)N[C@H](CCCCN)C(=O)N[C@@H](CCCNC(=N)N)C(=O)N[C@@H](CCCNC(=N)N)C(=O)N[C@@H](CO)C(=O)N[C@@H](C)C(=O)N[C@@H](CC(=O)O)C(=O)N[C@H](C(=O)N[C@@H](Cc1ccccc1)C(=O)N[C@H](C(N)=O)[C@@H](C)CC)[C@@H](C)CC)C(C)C)[C@@H](C)O` [Compound 44] (Palmitoyl-TVFPSSE[dK]RRSADIFI-NH2; C-terminus assumed), for which, on APJ receptor, the EC50 stood at 111 nM; the Ranking entry is “**** (EC50 101-500 nM and % histamine<35%)”; the percent intrinsic activity at 0.3 µM stood at 74%. Also, the “Histimine (% vs. 48/40)” value in the data set “Histimine (% vs. 48/40)” was 7%.
For the compound `CCCCCCCCCCCCCCCC(=O)N[C@H](C(=O)N[C@H](C(=O)N[C@@H](Cc1ccccc1)C(=O)N[C@@H](CCCNC(=N)N)C(=O)N[C@@H](CO)C(=O)N[C@@H](CO)C(=O)N1CCC[C@H]1C(=O)N[C@H](CCCCN)C(=O)N[C@@H](CCCNC(=N)N)C(=O)N[C@@H](CCCNC(=N)N)C(=O)N[C@@H](CO)C(=O)N[C@@H](C)C(=O)N[C@@H](CC(=O)O)C(=O)N[C@H](C(=O)N[C@@H](Cc1ccccc1)C(=O)N[C@H](C(N)=O)[C@@H](C)CC)[C@@H](C)CC)C(C)C)[C@@H](C)O` [Compound 47] (Palmitoyl-TVFRSSP[dK]RRSADIFI-NH2; C-terminus assumed), at APJ receptor, the EC50 was determined as 13.3 nM; the Ranking result was “*** (EC50<100 nM and % histamine>35%)”; the percent intrinsic activity at 0.3 µM was determined as 83%. Further, the “Histimine (% vs. 48/40)” value in “Histimine (% vs. 48/40)” was 60%.
